Reference: US20210299079A1, “MONOMETHYL FUMARATE-CARRIER CONJUGATES AND METHODS OF THEIR USE” (Flagship Pioneering Innovations V, Inc., priority 2018, published 2021)

Experiments:
Type in all cases: cell-based
[1] = test system: IL-1β; assay: Cytokine Release from Human PBMCs: IL-1β; details: LPS, 24 hours, Concentration 100 μM
Description: (§1) Human donor blood (8 mL) was collected in sodium citrate CPT tubes and centrifuged at 1,600×g for 20 minutes at room temperature. Buffy coat containing PBMCs was collected and transferred to a 50 mL conical tube containing 30 mL of RPMI-1640 medium at room temperature (supplemented with penicillin-streptomycin). PBMCs samples were centrifuged at 400×g for 10 minutes at 10° C. The pelleted PBMCs were washed twice in 10 ml of RPMI-1640 medium (supplemented with penicillin-streptomycin), then resuspended in RPMI-1640 medium (supplemented with penicillin-streptomycin, fetal bovine serum, and L-Glutamine). PBMCs were filtered through a 70 micron mesh to remove any cellular debris. […] PBMCs in a 96-well plate were rested for 30 minutes in a 37° C., 5% CO2 incubator, then subsequently treated with 10 μI of indicated compound. After 2 hours 10 μL of LPS (0111:64) 1 mg/mL was added to test wells. After 24 hours of incubation at 37° C., 5% CO2, 100 μL of cell supernatant was collected and transferred to a 96-well plate (non-tissue treated, flat bottom). The plate was centrifuged at 350×g for 5 minutes at room temperature, and then the clear supernatant transferred to a new 96-well plate (non-tissue treated, flat bottom). The remaining cells were tested for viability using CellTiter-Glo® Luminescent Cell Viability Assay (Promega). The supernatant was analyzed for TNFα, IL-6 and IL-1β (kit […] Systems), using Luminex Immunoassay Technology (MAGPIX System).

[2] = test system: IL-6; assay: Cytokine Release from Human PBMCs: IL-6; details: LPS, 24 hours, Concentration 100 μM
Description: as §1

[3] = test system: Caco-2 colonocytes; assay: Human Caco-2 Barrier Integrity Assay, Study 1; details: Caco-2, + cytokines (TNFα, IFNγ, IL-1β), 48 hours
Description: Caco-2 colonocytes were maintained at 37° C. and 5% CO2 in Dulbecco's Modified Eagle Medium (DMEM) and supplemented with 10% FBS, 1% NEAA, 1% penicillin-streptomycin. At 70-80% confluency, cells were trypsinized and seeded in 0.4 cm^2 transwell collagen I coated membranes with supplemented DMEM in both apical and basolateral compartments. […] After 48 hours, TEER readings were taken again and viability was measured by CellTiter 96® AQueous One Solution Cell Proliferation Assay (Promega).

[4] = test system: TNFα; assay: Cytokine Release from Human PBMCs: TNFα; details: LPS, 24 hours, Concentration 100 μM
Description: as §1

[5] = test system: naïve CD4+ T cells; assay: Human Regulatory T Cell Differentiation Assay; details: 6 days; for Cell viability % DMSO: viability dye
Description: Peripheral blood mononuclear cells (PBMCs) from whole blood donated by health volunteers were separated by Ficoll-Paque gradient centrifugation and naïve CD4^+ T cells were subsequently isolated using magnet beads (EasySep™ Human Naïve CD4^+ T Cell Isolation Kit, Cambridge, Mass.). For regulatory T cell (Treg) differentiation assay, naïve CD4^+ T cells were cultured (1-10×10^4 cells) in CTS OpTmizer medium for 6 days and stimulated with 5 ng/ml TGF-β, 100 U/ml IL-2, and ImmunoCult™ Human […] T Cell Activator; Stemcell #10990) with/without our Compounds. Cell viability was determined using a viability dye (eBioscience Fixable Viability Dye eFluor 780: ThermoFisher 65-0865-14) at 1:500 dilution. The cells were gated for Treg, defined as Live, CD11c^−, CD14^−, CD19^−, CD8^−, CD4^+, CD3^+, CD25^+, FOXP3^+. Percent (%) Tregs were calculated as percentage of CD4^+, CD25^+, FOXP3^+ cells over total CD4^+ T cells. Statistical analysis was performed with GraphPad Prism Software Using One-Way ANOVA.

[6] = test system: IL-8; assay: Neutrophil Chemokine Production Assay: IL-8; details: human neutrophils, 12 h
Description: (§2) A volume 25 mL of human blood was layered over 15 mL of Histopaque®-1077 and centrifuged at 500 g, R^T, for 30 min with no break applied to the centrifuge. The PBMC band and Histopaque®-1077 layer were removed leaving behind the bottom red layer which was mixed with 40 mL of 1× red blood cell (RBC) lysis buffer (Sigma-Aldrich) was and split into two 50 mL tubes. The volume for both fractions was brought to 50 mL with RBC lysis buffer, mixed by inversion, and then incubated at RT for 10 min. Solutions were centrifuged at 250 g, for 10 min at RT and the supernatant liquids removed. The reddish pellets were re-suspended in 1 mL of RBC lysis buffer and combined. The cell suspension was incubated for 5 min at RT in RBC lysis buffer. After incubation 45 mL of Hanks Balanced Salt Solution with no calcium, magnesium or phenol red (HBSS—) was added, the cell suspension was spun (250 g for 10 min at RT), and supernatant liquids were removed. The white pellet was re-suspended in 1 mL of HBSS—, and cell counts were determined. The neutrophil cell suspension was brought to a concentration of 1.11e6 cells/mL in RPMI complete (Sigma-Aldrich), and 180 μL of cell suspension was transferred to all wells within a sterile 96-well tissue culture treated plate resulting in 2.0×10^5 cells/well. […] After incubation, 10 μL of 2 μg/mL LPS solution in RPMI complete was added to each well except for control wells, which received an additional 10 μL of media. Cells were incubated for 12 h (37° C., 5% CO2), after which plates were centrifuged at 250 g, RT, for 5 min and supernatant liquids were obtained and stored at −80° C. until analyzed via Luminex® Multiplex Assay for various chemokines and cytokines. Three data points were acquired from two different blood donors and averaged.

[7] = test system: MIP-1α; assay: Neutrophil Chemokine Production Assay: MIP-1α; details: human neutrophils, 12 h
Description: as §2

[8] = test system: MIP-1β; assay: Neutrophil Chemokine Production Assay: MIP-1β; details: human neutrophils, 12 h
Description: as §2

| Structure (SMILES) | IL1β % DMSO control [1] | IL6 % DMSO control [2] | TNFα % of DMSO control [4] | % IL-8 (Vehicle + LPS = 100%) ([6]; Conc. 500.0 μM) | % IL-8 (Vehicle + LPS = 100%) ([6]; Conc. 1000.0 μM) | % MIP-1α (Vehicle + LPS = 100%) ([7]; Conc. 500.0 μM) | % MIP-1α (Vehicle + LPS = 100%) ([7]; Conc. 1000.0 μM) | % MIP-1β (DMSO + LPS = 100%) ([8]; Conc. 500.0 μM) | % MIP-1β (DMSO + LPS = 100%) ([8]; Conc. 1000.0 μM) | % Change in TEER from DMSO ([3]; 1 mM) | % Change in TEER from DMSO ([3]; 3 mM) | also measured |
| --- | --- | --- | --- | --- | --- | --- | --- | --- | --- | --- | --- | --- |
| CC(O)CC(=O)O (stereo not drawn) [β-hydroxybutyrate] | − ((−) >110% DMSO) | = ((=) 90% > <110% DMSO) | − ((−) >110% DMSO) |  |  |  |  |  |  |  |  | % Change in TEER from DMSO ([3]; 200 μM): + (125% > <150%: +); % Change in TEER from DMSO ([3]; 2 mM): − (<125%: −) |
| O=c1c(O)c(-c2ccc(O)c(O)c2)oc2cc(O)cc(O)c12 [quercetin] | + ((+) 50% > <90% DMSO) | + ((+) 50% > <90% DMSO) | + ((+) 50% > <90% DMSO) |  |  |  |  |  |  |  |  | Cell viability % DMSO ([5]; 100 nM): = (90% > <110%: =); Cell viability % DMSO ([5]; 1 μM): = (90% > <110%: =); activity at 0.1 µM ([5]; Homo sapiens, 144 h, TGF-β, IL-2, 100 nM, read-out: Treg induction % DMSO): 90 to 110%; activity at 1 µM ([5]; Homo sapiens, 144 h, TGF-β, IL-2, 1 μM, read-out: Treg induction % DMSO): 90 to 110%; % IL-8 (Vehicle + LPS = 100%) ([6]; Conc. 0.1 μM): − (− = >90% Vehicle); % IL-8 (Vehicle + LPS = 100%) ([6]; Conc. 1.0 μM): − (− = >90% Vehicle); % MIP-1α (Vehicle + LPS = 100%) ([7]; Conc. 0.1 μM): − (− = >90% Vehicle); % MIP-1α (Vehicle + LPS = 100%) ([7]; Conc. 1.0 μM): − (− = >90% Vehicle); % MIP-1β (DMSO + LPS = 100%) ([8]; Conc. 0.1 μM): − (− = >90% Vehicle); % MIP-1β (DMSO + LPS = 100%) ([8]; Conc. 1.0 μM): − (− = >90% Vehicle); % Change in TEER from DMSO ([3]; 100 nM): − (<125%: −); % Change in TEER from DMSO ([3]; 1 μM): + (125% > <150%: +) |
| CC(=O)O [acetate] | = ((=) 90% > <110% DMSO) | = ((=) 90% > <110% DMSO) | = ((=) 90% > <110% DMSO) | − (− = >90% Vehicle) | − (− = >90% Vehicle) | + (+ = <90% Vehicle) | ++ (++ = <70% Vehicle) | + (+ = <90% Vehicle) | + (+ = <90% Vehicle) | − (<125%: −) | − (<125%: −) | % IL-8 (Vehicle + LPS = 100%) ([6]; Conc. 3000.0 μM): +++ (+++ = <50% Vehicle); % MIP-1α (Vehicle + LPS = 100%) ([7]; Conc. 3000.0 μM): +++ (+++ = <50% Vehicle); % MIP-1β (DMSO + LPS = 100%) ([8]; Conc. 3000.0 μM): +++ (+++ = <50% Vehicle) |
| CCCC(=O)O [butyrate] | − ((−) >110% DMSO) | + ((+) 50% > <90% DMSO) | ++ ((++) <50% DMSO) | ++ (++ = <70% Vehicle) | ++ (++ = <70% Vehicle) | +++ (+++ = <50% Vehicle) | +++ (+++ = <50% Vehicle) | +++ (+++ = <50% Vehicle) | +++ (+++ = <50% Vehicle) | − (<125%: −) | − (<125%: −) | % Change in TEER from DMSO ([3]; 5 mM): ++ (150% > <200%: ++) |
| O=C[C@H](O)[C@@H](O)[C@@H](O)CO [L-arabinose] | = ((=) 90% > <110% DMSO) | + ((+) 50% > <90% DMSO) | + ((+) 50% > <90% DMSO) | − (− = >90% Vehicle) | − (− = >90% Vehicle) | − (− = >90% Vehicle) | − (− = >90% Vehicle) | − (− = >90% Vehicle) | − (− = >90% Vehicle) |  |  | Cell viability % DMSO ([5]; 0.5 mM): = (90% > <110%: =); Cell viability % DMSO ([5]; 1 mM): = (90% > <110%: =); activity at 500 µM ([5]; Homo sapiens, 144 h, TGF-β, IL-2, 0.5 mM, read-out: Treg induction % DMSO): 90 to 110%; activity at 1000 µM ([5]; Homo sapiens, 144 h, TGF-β, IL-2, 1 mM, read-out: Treg induction % DMSO): 90 to 110% |
